US5789379A, “Glucagon-like peptide-2 analogs” (Allelix Biopharmaceutical Inc., priority 1996, dated 1998)
Blank lines part the entries; values can stand above or below the molecule they belong to. Square brackets hold non-standard residues; d marks the D form. Ends that are not written are not given here. Peptide text beside a SMILES is read from it.

Assays:
[1] = target: T1, human placental DPP-IV (Homo sapiens, UniProt P27487); assay: Assay for resistance to dipeptidyl peptidase IV; format: in vitro ADME; conditions: for cleavage products detected: after 24 hours incubation with DPP-IV at 37° C., RP-HPLC
T1 construct: a solution of human placental DPP-IV (Calbiochem, La Jolla, Calif., cat. # 317624); purchased Calbiochem, La Jolla, Calif; 317624; host or cells: human placenta (tissue-derived)
T1 sequence (P27487 whole entry): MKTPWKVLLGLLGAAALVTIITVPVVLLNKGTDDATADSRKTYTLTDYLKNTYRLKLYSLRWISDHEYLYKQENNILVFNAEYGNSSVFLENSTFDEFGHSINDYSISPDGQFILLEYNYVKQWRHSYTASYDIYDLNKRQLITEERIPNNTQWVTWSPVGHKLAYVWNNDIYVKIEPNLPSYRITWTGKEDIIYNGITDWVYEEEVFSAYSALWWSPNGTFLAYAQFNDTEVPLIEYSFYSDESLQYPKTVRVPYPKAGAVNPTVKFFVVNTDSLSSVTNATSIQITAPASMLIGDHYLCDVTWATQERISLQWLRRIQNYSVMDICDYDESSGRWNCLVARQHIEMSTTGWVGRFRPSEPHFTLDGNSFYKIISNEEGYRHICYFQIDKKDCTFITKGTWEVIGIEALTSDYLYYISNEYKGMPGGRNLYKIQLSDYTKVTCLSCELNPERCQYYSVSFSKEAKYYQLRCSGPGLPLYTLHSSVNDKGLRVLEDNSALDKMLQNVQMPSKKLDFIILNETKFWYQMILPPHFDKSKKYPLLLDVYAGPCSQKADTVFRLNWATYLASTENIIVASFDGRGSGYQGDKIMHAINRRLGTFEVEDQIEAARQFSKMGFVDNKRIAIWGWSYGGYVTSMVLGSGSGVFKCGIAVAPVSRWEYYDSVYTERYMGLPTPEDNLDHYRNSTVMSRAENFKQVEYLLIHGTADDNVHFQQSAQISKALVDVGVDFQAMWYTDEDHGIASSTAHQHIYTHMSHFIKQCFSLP
Description: Each peptide was tested in duplicate.
Sample components were detected at 214 nanometers (nm).

[2] = system: rat liver and brain tissues; conditions: cited from earlier work
[3] = system: adenylate cyclase; conditions: liver plasma membranes; cited from earlier work
[4] = system: adenylate cyclase; conditions: rat hypothalamic and pituitary tissue; cited from earlier work

cleavage products detected [1]: No cleavage products were detected
Molecule: CC[C@H](C)[C@H](NC(=O)[C@H](Cc1ccccc1)NC(=O)[C@H](CC(=O)O)NC(=O)[C@H](CCCNC(=N)N)NC(=O)[C@@H](NC(=O)[C@H](C)NC(=O)[C@H](CC(C)C)NC(=O)[C@H](CC(N)=O)NC(=O)[C@H](CC(=O)O)NC(=O)[C@H](CC(C)C)NC(=O)[C@@H](NC(=O)[C@@H](NC(=O)[C@H](CC(N)=O)NC(=O)[C@H](CCSC)NC(=O)[C@H](CCC(=O)O)NC(=O)[C@H](CC(=O)O)NC(=O)[C@H](CO)NC(=O)[C@H](Cc1ccccc1)NC(=O)[C@H](CO)NC(=O)CNC(=O)[C@H](CC(=O)O)NC(=O)[C@@H](C)NC(=O)[C@@H](N)Cc1c[nH]cn1)[C@@H](C)O)[C@@H](C)CC)[C@@H](C)O)C(=O)N[C@@H](CC(N)=O)C(=O)N[C@@H](Cc1c[nH]c2ccccc12)C(=O)N[C@@H](CC(C)C)C(=O)N[C@H](C(=O)N[C@@H](CCC(N)=O)C(=O)N[C@H](C(=O)N[C@@H](CCCCN)C(=O)N[C@H](C(=O)N[C@H](C(=O)N[C@@H](CC(=O)O)C(=O)O)[C@@H](C)O)[C@@H](C)CC)[C@@H](C)O)[C@@H](C)CC [compound 3, [D-Ala^2]rGLP-2] (H-H[dA]DGSFSDEMNTILDNLATRDFINWLIQTKITD-OH)

Molecule: GLP-2: glucagon-like peptide GLP-2 as studied by Hoosein et al (literature); species not stated
competition with glucagon for binding [2]: neither competes | stimulation of adenylate cyclase production [3]: nor stimulates | concentration stimulating adenylate cyclase [4]: 30 to 50 pM

peptide cleaved by DPP-IV ([1]; 24 hour incubation at 37° C., 0.2 mg/ml peptide in PBS pH 7.4, RP-HPLC): 22%
Molecule: HADGSFSDEMNTILDNLATRDFINWLIQTKITD [compound 1, rGLP-2]

cleavage products detected [1]: No cleavage products were detected
Molecule: HGDGSFSDEMNTILDNLATRDFINWLIQTKITD [compound 4, [Gly^2]rGLP-2]
